Remaining activity data for 1 molecule are collected here from PMC10482691, “LTP induction by structural rather than enzymatic functions of CaMKII” (Nature, 2023).

Targets include PDGFRβ(h) (Homo sapiens, UniProt P09619); PKCδ(h) (Homo sapiens, UniProt Q05655); CaMKIIδ(h) (Homo sapiens, UniProt Q13557); PKG1β(h) (Homo sapiens, UniProt Q13976); JAK3(h) (Homo sapiens, UniProt P52333).
What all share (assay): Kinase selectivity panel (residual activity at 1 μM)
Type in all cases: biochemical
What all share (settings): inhibitor at 1 μM; read-out: residual kinase activity in % of maximal activity

JAK3(h), sequence (P52333 whole entry): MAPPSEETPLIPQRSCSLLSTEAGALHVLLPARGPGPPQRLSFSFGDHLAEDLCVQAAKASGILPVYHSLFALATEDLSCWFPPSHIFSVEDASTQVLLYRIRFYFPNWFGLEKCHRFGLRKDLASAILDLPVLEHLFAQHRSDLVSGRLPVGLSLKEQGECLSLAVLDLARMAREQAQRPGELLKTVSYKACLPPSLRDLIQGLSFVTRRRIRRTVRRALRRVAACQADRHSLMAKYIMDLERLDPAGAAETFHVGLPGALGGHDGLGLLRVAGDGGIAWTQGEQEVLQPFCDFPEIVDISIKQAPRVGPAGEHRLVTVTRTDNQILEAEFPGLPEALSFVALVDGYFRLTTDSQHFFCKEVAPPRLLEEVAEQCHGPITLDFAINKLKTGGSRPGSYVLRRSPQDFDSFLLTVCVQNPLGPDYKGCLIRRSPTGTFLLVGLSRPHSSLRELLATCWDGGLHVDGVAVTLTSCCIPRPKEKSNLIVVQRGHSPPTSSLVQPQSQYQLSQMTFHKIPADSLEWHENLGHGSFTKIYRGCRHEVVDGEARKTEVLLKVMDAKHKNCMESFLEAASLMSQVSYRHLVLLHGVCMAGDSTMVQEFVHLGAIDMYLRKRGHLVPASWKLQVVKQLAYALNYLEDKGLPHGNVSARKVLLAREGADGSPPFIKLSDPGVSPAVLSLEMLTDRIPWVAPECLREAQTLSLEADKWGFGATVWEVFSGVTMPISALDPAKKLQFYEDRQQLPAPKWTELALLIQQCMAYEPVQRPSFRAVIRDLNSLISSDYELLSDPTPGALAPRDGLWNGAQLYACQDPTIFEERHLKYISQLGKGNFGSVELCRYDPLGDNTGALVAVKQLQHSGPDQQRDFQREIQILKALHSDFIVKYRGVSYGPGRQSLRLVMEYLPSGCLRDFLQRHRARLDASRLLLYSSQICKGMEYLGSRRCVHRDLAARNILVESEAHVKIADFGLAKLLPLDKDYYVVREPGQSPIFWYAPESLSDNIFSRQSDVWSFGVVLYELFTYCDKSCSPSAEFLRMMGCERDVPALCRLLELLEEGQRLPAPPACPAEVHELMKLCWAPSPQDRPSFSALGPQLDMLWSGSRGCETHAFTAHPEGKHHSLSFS
PKG1β(h), sequence (Q13976 1-686 isoform Q13976-2): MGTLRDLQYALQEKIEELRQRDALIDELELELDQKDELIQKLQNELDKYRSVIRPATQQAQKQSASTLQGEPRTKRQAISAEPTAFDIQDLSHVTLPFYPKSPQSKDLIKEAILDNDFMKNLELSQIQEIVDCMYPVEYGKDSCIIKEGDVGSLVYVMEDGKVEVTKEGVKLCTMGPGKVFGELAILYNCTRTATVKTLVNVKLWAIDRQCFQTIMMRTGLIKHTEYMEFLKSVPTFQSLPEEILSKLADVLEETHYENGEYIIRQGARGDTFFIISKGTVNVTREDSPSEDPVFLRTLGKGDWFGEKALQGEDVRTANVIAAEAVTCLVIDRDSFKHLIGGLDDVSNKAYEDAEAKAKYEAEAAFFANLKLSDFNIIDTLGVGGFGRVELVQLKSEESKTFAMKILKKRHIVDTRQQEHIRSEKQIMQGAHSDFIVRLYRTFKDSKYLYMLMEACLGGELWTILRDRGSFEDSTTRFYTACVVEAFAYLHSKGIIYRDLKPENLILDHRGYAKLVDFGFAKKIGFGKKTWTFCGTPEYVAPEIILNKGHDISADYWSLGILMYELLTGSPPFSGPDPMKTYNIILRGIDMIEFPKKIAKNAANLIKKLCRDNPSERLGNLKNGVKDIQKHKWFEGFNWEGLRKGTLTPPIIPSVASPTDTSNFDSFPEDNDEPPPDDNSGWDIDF
PKCδ(h), sequence (Q05655 whole entry): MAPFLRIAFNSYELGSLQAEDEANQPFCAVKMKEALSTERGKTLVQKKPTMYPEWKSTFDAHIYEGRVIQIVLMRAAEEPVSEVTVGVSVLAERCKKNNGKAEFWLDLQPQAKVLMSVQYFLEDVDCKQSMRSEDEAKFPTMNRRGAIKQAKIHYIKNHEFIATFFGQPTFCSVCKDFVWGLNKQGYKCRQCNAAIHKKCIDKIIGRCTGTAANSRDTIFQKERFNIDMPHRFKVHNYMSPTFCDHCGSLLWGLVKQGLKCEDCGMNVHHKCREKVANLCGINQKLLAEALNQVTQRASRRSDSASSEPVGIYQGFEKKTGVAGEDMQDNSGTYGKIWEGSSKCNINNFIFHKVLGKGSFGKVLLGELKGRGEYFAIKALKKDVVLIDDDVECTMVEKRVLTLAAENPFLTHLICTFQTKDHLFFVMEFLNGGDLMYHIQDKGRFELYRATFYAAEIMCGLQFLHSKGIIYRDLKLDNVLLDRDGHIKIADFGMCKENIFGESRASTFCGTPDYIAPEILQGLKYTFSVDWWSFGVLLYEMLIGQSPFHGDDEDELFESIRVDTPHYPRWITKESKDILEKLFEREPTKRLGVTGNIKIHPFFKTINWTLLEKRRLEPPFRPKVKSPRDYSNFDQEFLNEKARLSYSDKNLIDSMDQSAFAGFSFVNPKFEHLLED
CaMKIIδ(h), sequence (Q13557 whole entry): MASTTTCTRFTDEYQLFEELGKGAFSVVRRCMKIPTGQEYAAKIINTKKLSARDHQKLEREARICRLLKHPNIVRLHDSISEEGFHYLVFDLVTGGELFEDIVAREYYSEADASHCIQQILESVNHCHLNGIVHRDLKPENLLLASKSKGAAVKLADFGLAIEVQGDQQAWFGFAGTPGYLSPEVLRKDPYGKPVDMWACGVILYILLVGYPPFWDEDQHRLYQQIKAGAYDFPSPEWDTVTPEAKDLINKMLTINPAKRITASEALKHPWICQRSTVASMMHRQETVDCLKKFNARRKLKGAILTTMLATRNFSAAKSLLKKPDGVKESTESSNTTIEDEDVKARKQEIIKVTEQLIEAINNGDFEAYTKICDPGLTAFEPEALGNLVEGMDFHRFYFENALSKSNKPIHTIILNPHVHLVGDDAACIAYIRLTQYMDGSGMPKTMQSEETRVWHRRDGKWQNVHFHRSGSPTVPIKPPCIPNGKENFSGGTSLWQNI
PDGFRβ(h), sequence (P09619 33-1106): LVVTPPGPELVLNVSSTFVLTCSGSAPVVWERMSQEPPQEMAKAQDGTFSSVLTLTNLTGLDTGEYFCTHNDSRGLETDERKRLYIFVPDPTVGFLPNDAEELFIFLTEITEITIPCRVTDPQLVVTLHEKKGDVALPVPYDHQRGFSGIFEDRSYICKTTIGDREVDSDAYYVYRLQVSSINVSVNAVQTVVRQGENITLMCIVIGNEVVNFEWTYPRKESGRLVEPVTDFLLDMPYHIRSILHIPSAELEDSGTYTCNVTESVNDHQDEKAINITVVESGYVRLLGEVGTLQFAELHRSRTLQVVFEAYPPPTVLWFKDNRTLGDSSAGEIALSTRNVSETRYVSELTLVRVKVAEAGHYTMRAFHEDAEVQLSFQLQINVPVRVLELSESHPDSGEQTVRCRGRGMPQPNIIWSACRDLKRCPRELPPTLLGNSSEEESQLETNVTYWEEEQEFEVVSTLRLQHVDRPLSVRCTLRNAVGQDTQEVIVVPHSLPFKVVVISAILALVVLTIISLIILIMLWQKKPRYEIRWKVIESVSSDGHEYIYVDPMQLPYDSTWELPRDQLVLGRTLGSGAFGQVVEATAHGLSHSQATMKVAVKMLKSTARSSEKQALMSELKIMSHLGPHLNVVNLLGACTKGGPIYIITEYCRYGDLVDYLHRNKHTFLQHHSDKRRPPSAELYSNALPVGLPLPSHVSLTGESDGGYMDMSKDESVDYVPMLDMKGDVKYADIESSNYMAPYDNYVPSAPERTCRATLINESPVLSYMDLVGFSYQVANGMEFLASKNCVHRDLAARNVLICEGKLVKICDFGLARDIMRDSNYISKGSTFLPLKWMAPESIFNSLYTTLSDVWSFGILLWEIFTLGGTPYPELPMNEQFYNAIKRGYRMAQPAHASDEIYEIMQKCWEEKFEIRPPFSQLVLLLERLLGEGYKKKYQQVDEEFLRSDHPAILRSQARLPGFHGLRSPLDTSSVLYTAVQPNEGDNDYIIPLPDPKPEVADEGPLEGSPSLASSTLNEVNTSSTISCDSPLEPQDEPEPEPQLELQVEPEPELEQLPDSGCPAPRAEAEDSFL

In the case of `NCCNc1cccc(-c2ccnc3[nH]c4ccccc4c23)c1` [AS283], the remaining activity at 1 µM at PDGFRβ(h) was 111%; on PKCδ(h) it was 39%; on CaMKIIδ(h) it was 2%; on PKG1β(h), 38%; on JAK3(h), 92%.
